Columns and labels:
[1] = system: QD3-sbl (DNA, G4) TTAGGTGGGTAGGGTGGGCTAGTCATTTTGACTAGG; test: ITC; details: 120 mM K+; 20 mM potassium phosphate, 100 mM KCl, pH 7.0, 5% DMSO, 40 °C; high-affinity site, two-site fit
[2] = system: QD3-sbl (DNA, G4) TTAGGTGGGTAGGGTGGGCTAGTCATTTTGACTAGG; test: NMR solution structure; details: K+ (10 mM potassium phosphate); pH 7.0, 30 °C; about 2% DMSO-d6; intercalation at quadruplex-duplex junction
[3] = system: QD2-l (DNA, G4) GGTTGGCGCGAAGCATTCGCGGGTTGG; test: NMR titration (imino protons, ROESY exchange); details: K+ (10 mM potassium phosphate), pH 7.0, 20 °C, 0.5 mM DNA, slow exchange, intercalation at junction

| Ka [1] | binding [2] | binding [3] | Compound |
| --- | --- | --- | --- |
| (1.1±0.3) ⋅ 10^7 M^-1 | yes | yes | CN(C)CCCNc1c2ccccc2nc2c1[nH]c1ccccc12 |
| (3.3±0.7) ⋅ 10^6 M^-1 |  |  | C[n+]1c2ccccc2cc2[nH]c3ccccc3c21 |

From PMC9303235 (2022)
